System: Male Fischer 344 rats
Assay: Penile Erection in Rat
Assay type: in vivo
Conditions: male Fischer 344 rats (n=7), observed for 60 minutes, mean number
Protocol: (This test was carried out according to a similar manner to that described in Jpn. J. Pharmacol., Vol. 64, 147-153 (1994))
Male Fischer 344 rats at the age of 8 weeks (n=7) were used. All rats were handled 3 minutes a day for three successive days before the tests. The rats were tested in groups of seven and various doses of the test compound were given in semi-randomized order. The test compounds were suspended in 0.5% methyl-cellulose immediately before use, and given intraperitoneally in a volume of 1 ml/kg just before the start of test. […] A mirror was situated behind each box […]. Data was expressed as a mean number.

CC(=O)N1CCN(C(=O)Nc2ccc(F)cc2)CC1 [Example 2, 1-acetyl-4-(4-fluorophenylcarbamoyl)piperazine]
Penile Erection (dose 1 mg/kg intraperitoneally): 1.14 number/hr

O=C(NC1CCN(C(=O)C2CC2)CC1)c1ccc(F)cc1 [Example 19, N-(1-cyclopropylcarbonylpiperidin-4-yl)-4-fluorobenzamide]
Penile Erection (dose 0.32 mg/kg intraperitoneally): 0.75 number/hr
